Experimental data reported in ChEMBL document CHEMBL1151866, “Design and synthesis of novel delta opioid receptor agonists and their pharmacologies” (Bioorg Med Chem Lett, 2009).

Key:
Rattus norvegicus = species: Rattus norvegicus; assay: Selectivity ratio of Ki for mu opioid receptor in rat cerebellum membrane to Ki for delta opioid receptor in rat cerebellum membrane; type: cell membranes
[1] = molecular target: T1, Delta-type opioid receptor (Homo sapiens, UniProt P41143); assay: Agonist activity at human recombinant delta opioid receptor expressed in CHO cells by [35S]GTPgammaS binding assay; type: functional, cell-based
T1 sequence (P41143 whole entry): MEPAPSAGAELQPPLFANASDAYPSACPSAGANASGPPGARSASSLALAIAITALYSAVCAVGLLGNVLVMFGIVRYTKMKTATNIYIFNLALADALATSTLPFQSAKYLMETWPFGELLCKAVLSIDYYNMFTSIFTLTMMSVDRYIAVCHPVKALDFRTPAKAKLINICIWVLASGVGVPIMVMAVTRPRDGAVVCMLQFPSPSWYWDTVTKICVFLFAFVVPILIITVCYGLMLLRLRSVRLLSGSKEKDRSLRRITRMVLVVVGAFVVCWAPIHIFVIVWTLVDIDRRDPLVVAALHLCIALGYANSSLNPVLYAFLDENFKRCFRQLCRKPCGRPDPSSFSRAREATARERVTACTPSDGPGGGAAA

[2] = molecular target: Delta-type opioid receptor (Rattus norvegicus, UniProt P33533); assay: Displacement of [3H]DADLE from delta opioid receptor in rat cerebellum membrane; type: cell membranes
Sequence of Delta-type opioid receptor (Rattus norvegicus, UniProt P33533) (P33533 whole entry): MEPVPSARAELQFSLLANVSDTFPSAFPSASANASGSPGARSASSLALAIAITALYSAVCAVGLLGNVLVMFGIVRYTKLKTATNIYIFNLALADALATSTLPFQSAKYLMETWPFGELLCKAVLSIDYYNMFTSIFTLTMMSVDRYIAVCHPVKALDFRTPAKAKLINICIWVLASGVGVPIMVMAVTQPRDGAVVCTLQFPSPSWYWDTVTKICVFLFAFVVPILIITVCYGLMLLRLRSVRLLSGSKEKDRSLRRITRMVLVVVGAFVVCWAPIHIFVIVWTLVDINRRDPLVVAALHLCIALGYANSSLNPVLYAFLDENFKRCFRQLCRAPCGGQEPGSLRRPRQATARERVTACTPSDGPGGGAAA

[3] = molecular target: T1, Delta-type opioid receptor; assay: Agonist activity at human recombinant delta opioid receptor expressed in HEK293 cells by [35S]GTPgammaS binding assay; type: functional, cell-based
Mus musculus = assay: Analgesic activity against acetic acid-induced writhing in sc dosed mouse; type: functional
[4] = Selectivity ratio of Ki for kappa opioid receptor in guinea pig cerebellum to Ki for delta opioid receptor in rat cerebellum membrane; type: cell membranes
[5] = molecular target: Kappa-type opioid receptor (Cavia porcellus, UniProt P41144); assay: Displacement of [3H]U-69593 from kappa opioid receptor in guinea pig cerebellum; type: tissue-based
Sequence of Kappa-type opioid receptor (P41144 whole entry): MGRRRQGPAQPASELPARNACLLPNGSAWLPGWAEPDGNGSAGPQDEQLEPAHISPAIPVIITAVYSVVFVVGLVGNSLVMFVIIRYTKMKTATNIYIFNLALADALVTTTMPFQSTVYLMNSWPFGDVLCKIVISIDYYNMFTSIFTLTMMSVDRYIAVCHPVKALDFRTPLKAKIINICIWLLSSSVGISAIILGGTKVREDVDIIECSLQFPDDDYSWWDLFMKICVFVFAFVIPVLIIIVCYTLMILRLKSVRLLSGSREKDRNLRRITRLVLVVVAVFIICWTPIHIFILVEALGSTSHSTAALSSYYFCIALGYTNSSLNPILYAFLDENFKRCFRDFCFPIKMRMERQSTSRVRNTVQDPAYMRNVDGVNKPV

Mu-type opioid receptor = Mu-type opioid receptor (Rattus norvegicus, UniProt P33535); assay: Displacement of [3H]DAMGO from mu opioid receptor in rat cerebellum membrane; type: cell membranes
Sequence of Mu-type opioid receptor (P33535 whole entry): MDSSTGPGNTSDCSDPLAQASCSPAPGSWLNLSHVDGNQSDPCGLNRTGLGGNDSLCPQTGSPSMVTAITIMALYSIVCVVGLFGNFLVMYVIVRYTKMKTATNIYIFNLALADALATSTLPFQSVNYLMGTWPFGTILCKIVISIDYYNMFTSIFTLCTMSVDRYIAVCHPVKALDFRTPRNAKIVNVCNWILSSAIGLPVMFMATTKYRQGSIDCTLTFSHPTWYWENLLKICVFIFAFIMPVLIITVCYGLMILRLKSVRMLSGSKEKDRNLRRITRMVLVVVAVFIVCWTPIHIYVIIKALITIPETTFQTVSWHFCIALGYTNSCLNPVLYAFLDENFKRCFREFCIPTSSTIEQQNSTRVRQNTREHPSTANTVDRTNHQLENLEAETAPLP

[6] = molecular target: T1, Delta-type opioid receptor; assay: Ratio of EC50 for drug to EC50 for TAN-67 against human recombinant delta opioid receptor

| SMILES | Ratio (Rattus norvegicus) | EC50 [1] [pM] | Ki [2] [pM] | EC50 [3] [pM] | ED50 (Mus musculus) [mg/kg] | Ratio [4] | Ki [5] [pM] | Ki (Mu-type opioid receptor) [pM] | Ratio EC50 [6] |
| --- | --- | --- | --- | --- | --- | --- | --- | --- | --- |
| CN1CC[C@]2(c3cccc(O)c3)Cc3nc4ccccc4cc3C[C@H]2C1 | 197 | 1400 | 1440 | 700 | 31.4 | 509 | 732000 | 284000 |  |
| Oc1ccc2c(c1)[C@]13CCN(CC4CC4)[C@H](C2)[C@@H]1Cc1cc2ccccc2nc1C3 | 4.1 |  | 190 | 18 |  | 1.9 | 360 | 770 | 10 |
| CC(C)CN1CC[C@]23Cc4nc5ccccc5cc4C[C@H]2[C@H]1Cc1ccc(O)cc13 | 124 |  | 190 | 60 |  | 23.2 | 4410 | 23600 | 10 |
| CN1CC[C@]23Cc4nc5ccccc5cc4C[C@H]2[C@H]1Cc1ccc(O)cc13 | 82.4 |  | 140 | 47 |  | 72.9 | 10200 | 11500 | 10 |
